In patent US9426996B2, “Use of benzoxaboroles as volatile antimicrobial agents on meats, plants, or plant parts” (AgroFresh Inc., priority 2013, dated 2016):

Key:
[1] = test system: Botrytis cinerea; experiment: in vivo strawberry assay, release from cardboard or filter paper; settings: strawberries
Source text: An in vivo assay is used to evaluate the ability of Compound A to volatilize from different materials and control fungal pathogens. Eight strawberries are placed in a clamshell with the stem end facing downwards. […] The clamshells are then placed in a 10.8-cup SnapWare airtight container (Model #109842). As a substrate for Compound A, either a 42.5 mm Whatman #1 filter disk (Cat. No. 1001-042) placed on a watch glass or 10 square centimeter (cm^2) pieces of cardboard typically used for packaging strawberries was used. Compound A is dissolved in acetone and either pipetted on the disk or painted on the cardboard at a rate to achieve a final headspace concentration of 0.4, 2, or 10 mg/L. The acetone is permitted to evaporate for five minutes. The containers are closed, and placed for three days at 21° C. After treatment, fruit are stored for an additional two days at 21° C. and then evaluated for incidence (%) and severity (0 to 4) of disease, with the results summarized in Table 24.

[2] = test system: Botrytis cinerea; experiment: in vivo strawberry assay comparing fog and sublimation; settings: 10 mg/L, three day treatment plus three days at 21° C.
Description: To compare the ability of Compound A when actively volatilized by different mechanisms, an in vivo assay using strawberry is performed. Eight strawberries are placed in a clamshell with stem end facing downwards. […] The clamshell is placed in a 10.8-cup SnapWare airtight container (Model #109842) and closed with the lids. Compound A is dissolved in acetone and volatilized through a sealable ½ inch side port by an ES-100-H SmartFog system (Reno, Nev.). Alternatively, Compound A, dissolved in acetone, is pipetted onto a cotton strip, where the acetone is allowed to evaporate for five minutes, and then introduced into the container by a sublimation device (copper tube heated to 200° C. with fan flow at 0.5 L/min) to achieve a final headspace concentration of 10 mg/L. The fruits are stored for three days at 21° C. After the three days of treatment, fruit are stored for an additional three days at 21° C., and then evaluated for incidence (%) and severity of disease (0 to 4).

[3] = test system: Botrytis cinerea; experiment: in vivo volatile bioassay using green table grape
Description: In order to assess the in vivo activity of volatile antimicrobial compounds, a volatile bioassay is developed using green table grape. Fruit are placed individually inside a 20 mL scintillation vial, with the stem wound facing upwards. The fresh stem wound is inoculated with 10 μL of 1×10^6 per mL Botrytis cinerea spore suspension. Whatman filter paper (Cat. No. 1822-024) is placed inside duplicate vial caps. […] The acetone is permitted to evaporate for 5 minutes. The vials are then capped with the lids containing the fungicide, and placed for 14 days at 4° C. After storage, fruit are evaluated for incidence of disease and appearance of phytotoxicity.

[4] = test system: Botrytis cinerea; experiment: in vivo strawberry assay, release from cellulose paper and Tyvek fabric; settings: strawberries
Description: An in vivo assay is used to evaluate the ability of Compound A to volatilize from different materials and control fungal pathogens. Eight strawberries are placed in a clamshell with stem end facing downwards. […] The clamshells are then placed in a 10.8-cup SnapWare airtight container (Model #109842). Compound A is dissolved in acetone and then evenly sprayed onto cellulose paper and Tyvek® fabric at a rate of 200 milligrams per square meter (mg/m^2). The acetone is allowed to evaporate. Likewise Compound A is dissolved in propylene glycol and evenly sprayed onto cellulose paper and Tyvek® fabric. No evaporation is attempted in this case.
Pieces of material are cut to the appropriate dimensions to deliver a final headspace concentration of 0.4, 2, or 10 mg/L. The containers are close, and placed for three days at 21° C. After treatment, fruit are stored for an additional two days at 21° C. and then evaluated for incidence (%) and severity (0 to 4) of disease, with the results summarized in Table 23.

[5] = test system: Penicillium expansum; experiment: in vivo volatile bioassay using apple; settings: 50 mg/L; for Sporulation (mm) / Rot (mm): apples
Description: In order to assess the in vivo activity of volatile antimicrobial Compound A in fruit, a volatile bioassay is developed using apple. Two apples are placed inside a PET clamshell. Three fresh wounds per apple are inoculated with 30 μL of 1×10^6 per mL Penicillium expansum spore suspension. The clamshells are placed inside a 10.8-cup SnapWare airtight container (Model #109842). A 42.5 mm Whatman #1 filter disk (Cat. No. 1001-042) is placed on a watch glass. Compound A is dissolved in acetone and added to the disks in a manner to produce a final headspace concentration of 50 mg/L. The acetone is permitted to evaporate for five minutes. The containers are then closed with the lids, and placed for three days at 21° C. After storage, fruits are evaluated for disease incidence (mm diameter of the rot) and pathogen sporulation (mm diameter) on the surface of the fruits for an additional three days at 21° C., with results summarized in Table 19.

## OB1OCc2cc(F)ccc21 [Compound A]
[1]; 0.4 mg/L, Cardboard
  Incidence (%): 87.5%
  Severity (0-4): 0.9
[1]; 0.4 mg/L, Filter Paper
  Incidence (%): 56.3%
  Severity (0-4): 2.5
[1]; 2 mg/L, Cardboard
  Incidence (%): 37.5%
  Severity (0-4): 0.3
[1]; 2 mg/L, Filter Paper
  Incidence (%): 37.5%
  Severity (0-4): 0.6
[1]; 10 mg/L, Cardboard
  Incidence (%): 25%
  Severity (0-4): 0.2
[1]; 10 mg/L, Filter Paper
  Incidence (%): 18.8%
  Severity (0-4): 0.3
[2]; Fog
  Incidence (%): 6.3%
  Severity (0 to 4): 0.03
[2]; Sublimation
  Incidence (%): 0.0%
  Severity (0 to 4): 0.0
[3]; 0.005 mg per disk, 14 days at 4° C.
  Botrytis inhibition % (in vivo): 0%
[3]; 0.01 mg per disk, 14 days at 4° C.
  Botrytis inhibition % (in vivo): 0%
[3]; 0.023 mg per disk, 14 days at 4° C.
  Botrytis inhibition % (in vivo): 0%
[3]; 0.04 mg per disk, 14 days at 4° C.
  Botrytis inhibition % (in vivo): 100%
[3]; 0.08 mg per disk, 14 days at 4° C.
  Botrytis inhibition % (in vivo): 100%
[3]; 0.16 mg per disk, 14 days at 4° C.
  Botrytis inhibition % (in vivo): 100%
[3]; 0.31 mg per disk, 14 days at 4° C.
  Botrytis inhibition % (in vivo): 100%
[3]; 0.63 mg per disk, 14 days at 4° C.
  Botrytis inhibition % (in vivo): 100%
[3]; 1.25 mg per disk, 14 days at 4° C.
  Botrytis inhibition % (in vivo): 100%
[3]; 14 days at 4° C.
  lowest rate with 100% control of Botrytis cinerea: 0.04 mg/disk
[3]; any of the rates evaluated (2.5 to 0.0024 mg/disk)
  appearance of phytotoxicity: no evidence of phytotoxicity
[4]; 0.4 mg/L, Cellulose Paper
  Incidence (%): 37.5%
  Severity (0-4): 0.8
[4]; 0.4 mg/L, Tyvek
  Incidence (%): 31.3%
  Severity (0-4): 0.5
[4]; 2 mg/L, Cellulose Paper
  Incidence (%): 37.5%
  Severity (0-4): 0.7
[4]; 2 mg/L, Tyvek
  Incidence (%): 6.3%
  Severity (0-4): 0.1
[4]; 10 mg/L, Cellulose Paper
  Severity (0-4): 0.2
[4]; 10 mg/L, Tyvek
  Incidence (%): 6.3%
  Severity (0-4): 0.3
[5]; up to 3 days after treatment
  in vivo volatile antimicrobial control of P. expansum mold of apple: 100%
[5]; Day 0
  Sporulation (mm): 0 mm
[5]; Day 1
  Rot (mm): 0 mm
  Sporulation (mm): 0 mm
[5]; Day 2
  Rot (mm): 0 mm
  Sporulation (mm): 0 mm
[5]; Day 3
  Rot (mm): 0 mm
  Sporulation (mm): 0 mm
